According to patent US20250313535A1, “ALPHA 4 BETA 7 INTEGRIN MODULATORS AND USES THEREOF” (DICE MOLECULES SV, INC., priority 2022, published 2025):

How the values were obtained:
α4β7 integrin = α4β7 integrin (Homo sapiens (Human), UniProt P13612+P26010); assay: Integrin Adhesion Assay: Protocol 4 (MAdCAM-coated plate, RPMI-8866 cells with stable LOF mutation of the ITGB1 gene); format: cell-based; conditions: RPMI-8866 cells with stable LOF mutation of the ITGB1 gene; read-out: Mean IC50 α4β7 KO^a
Sequence of α4β7 integrin (P13612 34-1032): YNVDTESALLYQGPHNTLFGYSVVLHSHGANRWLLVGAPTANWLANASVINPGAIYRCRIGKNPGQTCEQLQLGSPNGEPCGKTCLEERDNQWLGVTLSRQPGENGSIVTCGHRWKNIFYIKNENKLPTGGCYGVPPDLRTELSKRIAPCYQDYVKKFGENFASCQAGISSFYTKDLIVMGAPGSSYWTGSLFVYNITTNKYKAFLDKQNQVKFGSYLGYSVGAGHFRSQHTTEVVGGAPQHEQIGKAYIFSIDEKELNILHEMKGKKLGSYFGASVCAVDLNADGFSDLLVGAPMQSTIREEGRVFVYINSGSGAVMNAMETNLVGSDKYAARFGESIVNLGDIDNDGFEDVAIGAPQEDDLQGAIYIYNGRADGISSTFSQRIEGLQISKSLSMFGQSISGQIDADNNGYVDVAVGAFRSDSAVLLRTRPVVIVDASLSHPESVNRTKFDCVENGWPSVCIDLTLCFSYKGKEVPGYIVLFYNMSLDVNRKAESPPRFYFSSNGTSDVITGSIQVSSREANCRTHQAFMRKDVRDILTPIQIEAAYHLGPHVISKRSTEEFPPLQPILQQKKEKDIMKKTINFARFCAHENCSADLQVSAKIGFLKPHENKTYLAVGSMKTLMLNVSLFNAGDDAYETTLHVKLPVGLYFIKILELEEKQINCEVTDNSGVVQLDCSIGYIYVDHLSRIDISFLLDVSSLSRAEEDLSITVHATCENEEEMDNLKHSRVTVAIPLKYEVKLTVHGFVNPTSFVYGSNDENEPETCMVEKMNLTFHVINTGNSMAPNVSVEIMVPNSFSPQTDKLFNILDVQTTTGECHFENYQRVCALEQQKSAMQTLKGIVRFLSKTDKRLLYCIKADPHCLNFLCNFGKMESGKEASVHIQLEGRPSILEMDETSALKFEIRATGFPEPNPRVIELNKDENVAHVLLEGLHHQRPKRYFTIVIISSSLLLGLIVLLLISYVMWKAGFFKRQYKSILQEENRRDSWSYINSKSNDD
Sequence of α4β7 integrin (P26010 20-798): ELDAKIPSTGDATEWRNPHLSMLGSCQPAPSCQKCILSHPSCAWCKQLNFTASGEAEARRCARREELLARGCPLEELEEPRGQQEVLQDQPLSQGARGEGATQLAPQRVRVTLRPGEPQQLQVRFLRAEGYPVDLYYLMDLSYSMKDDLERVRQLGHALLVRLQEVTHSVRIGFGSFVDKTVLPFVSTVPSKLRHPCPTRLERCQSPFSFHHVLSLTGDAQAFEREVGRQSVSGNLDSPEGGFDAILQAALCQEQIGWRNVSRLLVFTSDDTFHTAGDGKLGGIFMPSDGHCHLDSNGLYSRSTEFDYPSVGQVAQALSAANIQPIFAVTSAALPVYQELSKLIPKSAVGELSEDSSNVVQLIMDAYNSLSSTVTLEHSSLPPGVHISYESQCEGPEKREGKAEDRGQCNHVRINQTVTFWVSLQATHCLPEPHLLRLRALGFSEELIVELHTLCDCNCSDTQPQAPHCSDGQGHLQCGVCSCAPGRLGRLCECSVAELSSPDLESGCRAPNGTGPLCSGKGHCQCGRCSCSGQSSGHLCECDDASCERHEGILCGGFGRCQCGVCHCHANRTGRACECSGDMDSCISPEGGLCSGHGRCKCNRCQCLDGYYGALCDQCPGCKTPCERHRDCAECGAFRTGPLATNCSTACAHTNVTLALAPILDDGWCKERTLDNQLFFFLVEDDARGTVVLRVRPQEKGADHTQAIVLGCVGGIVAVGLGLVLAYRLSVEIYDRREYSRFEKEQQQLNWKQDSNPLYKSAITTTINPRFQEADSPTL
In short: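 RPMI-8866 cells with CRISPR/Cas9 knockout of ITGB1 (2×10^6/mL) were added to MAdCAM-coated wells with compound (1% DMSO) in HEPES/NaCl buffer with 1 mM MnCl2, 0.1 mM CaCl2 and 1% BSA, then incubated 1 h at 37 °C. After four washes, adherent cells were quantified by CellTiter-Glo luminescence. Percent inhibition versus DMSO and control compound was fitted to 4-parameter curves.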

α4β1 integrin = α4β1 integrin (Homo sapiens (Human), UniProt P05556+P13612); assay: Integrin Adhesion Assay: Protocol 5 (VCAM-coated plate, RPMI-8866 cells with stable LOF mutation of the ITGB7 gene); format: cell-based; conditions: RPMI-8866 cells with stable LOF mutation of the ITGB7 gene; read-out: Mean IC50 α4β1 KO^b
Sequence of α4β1 integrin (P13612 34-1032): as the sequence (P13612 34-1032) above
Sequence of α4β1 integrin (P05556 21-798): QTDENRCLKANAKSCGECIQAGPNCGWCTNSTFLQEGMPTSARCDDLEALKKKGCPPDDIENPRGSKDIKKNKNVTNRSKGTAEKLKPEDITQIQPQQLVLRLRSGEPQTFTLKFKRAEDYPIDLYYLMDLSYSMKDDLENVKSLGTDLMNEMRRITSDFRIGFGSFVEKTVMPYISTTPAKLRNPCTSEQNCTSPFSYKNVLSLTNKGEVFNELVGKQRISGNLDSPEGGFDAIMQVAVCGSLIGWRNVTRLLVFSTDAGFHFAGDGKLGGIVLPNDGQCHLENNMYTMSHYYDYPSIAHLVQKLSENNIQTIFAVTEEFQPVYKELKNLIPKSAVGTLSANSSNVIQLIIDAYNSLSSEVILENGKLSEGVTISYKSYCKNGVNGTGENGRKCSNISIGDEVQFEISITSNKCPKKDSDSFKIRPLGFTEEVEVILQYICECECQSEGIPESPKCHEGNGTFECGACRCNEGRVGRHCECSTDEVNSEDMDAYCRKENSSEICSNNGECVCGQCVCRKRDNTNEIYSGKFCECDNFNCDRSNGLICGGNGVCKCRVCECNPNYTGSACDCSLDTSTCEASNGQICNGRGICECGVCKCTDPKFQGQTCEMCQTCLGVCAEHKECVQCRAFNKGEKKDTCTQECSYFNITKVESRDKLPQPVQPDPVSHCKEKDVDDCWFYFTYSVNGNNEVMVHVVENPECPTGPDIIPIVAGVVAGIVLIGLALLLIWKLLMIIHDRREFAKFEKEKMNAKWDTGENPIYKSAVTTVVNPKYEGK
In short: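 RPMI-8866 B cells with CRISPR/Cas9 ITGB7 knockout (clonal, verified by flow cytometry) adhered to VCAM-coated wells for 1 h at 37° C in HEPES/NaCl buffer with 1 mM MnCl2, 0.1 mM CaCl2, 1% BSA, 1% DMSO. Bound cells quantified by CellTiter-Glo luminescence after washing; % inhibition versus DMSO and control, 4-parameter fit.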

IC50 (α4β7 integrin) [nM] | IC50 (α4β1 integrin) [nM] | Compound
10 to 100 | > 1000 | Cn1c(=O)c(-c2cccc3c(C[C@H](NC(=O)C4(C(F)(F)F)CCN(CC#N)CC4)C(=O)O)cccc23)c(C(F)(F)F)c2ccccc21 [Compound 538]
< 10 | > 1000 | O=C(O)[C@H](Cc1cccc2c(-c3nccc4ccc(CCCN5CCC(F)(F)CC5)cc34)cccc12)NC(=O)C1(C(F)(F)F)CCN(CC(F)(F)F)CC1 [Compound 539]
< 10 | 100 to 1000 | COc1cccc(CN2CCCCC2)c1-c1cccc2c(C[C@H](NC(=O)c3c(F)cccc3C(C)C)C(=O)O)cccc12 [Compound 540]
< 10 | 100 to 1000 | COc1cccc(CN2CCCCC2)c1-c1cccc2c(C[C@H](NC(=O)c3c(F)cccc3C(F)(F)F)C(=O)O)cccc12 [Compound 542]
< 10 | > 1000 | COc1cccc(CN2CCCCC2)c1-c1cccc2c(C[C@H](NC(=O)c3c(F)ccc(F)c3C)C(=O)O)cccc12 [Compound 543]
< 10 | 100 to 1000 | COc1cccc(CN2CCCCC2)c1-c1cccc2c(C[C@H](NC(=O)c3c(C)cc(C4CC(F)(F)C4)cc3F)C(=O)O)cccc12 [Compound 544]
< 10 | 100 to 1000 | COc1cccc(CN2CCCCC2)c1-c1cccc2c(C[C@H](NC(=O)c3c(C)cc(NCC(F)(F)F)cc3F)C(=O)O)cccc12 [Compound 545]
< 10 | 100 to 1000 | CCc1cccc(F)c1C(=O)N[C@@H](Cc1cccc2c(-c3c(CN4CCCCC4)cccc3OC)cccc12)C(=O)O [Compound 546]
< 10 | 100 to 1000 | O=C(O)[C@H](Cc1cccc2c(-c3nccc4ccc(CCCN5CCCCC5)cc34)cccc12)NC(=O)C1(C(F)(F)F)CCN(C2COC2)CC1 [Compound 547]
< 10 | > 1000 | O=C(O)[C@H](Cc1cccc2c(-c3nccc4ccc(CCCN5CCCCC5)cc34)cccc12)NC(=O)C1(C(F)(F)F)CCNCC1 [Compound 549]
10 to 100 | > 1000 | O=C(O)[C@H](Cc1cccc2c(-c3ncc(CN4CCCCC4)c4ccccc34)cccc12)NC(=O)C1(C(F)(F)F)CCNCC1 [Compound 550]
< 10 | 100 to 1000 | COC(=O)[C@H](Cc1cccc2c(-c3c(OC)ccc(CN(C)C)c3C(F)(F)F)cccc12)NC(=O)OC(C)(C)C [Compound 551]
< 10 | 100 to 1000 | COC(=O)[C@H](Cc1cccc2c(-c3c(OC)ccc(CN4C(C)CCC4C)c3OC)cccc12)NC(=O)c1c(C)cccc1F (some centres unmarked) [Compound 552]
< 10 | 100 to 1000 | O=C(O)[C@H](Cc1cccc2c(-c3nccc4c(CN5CCCC5)cccc34)cccc12)NC(=O)C1(C(F)(F)F)CCN(CC(F)(F)F)CC1 [Compound 553]
10 to 100 | > 1000 | O=C(O)[C@H](Cc1cccc2c(-c3nccc4c(CN5CCC(F)(F)CC5)cccc34)cccc12)NC(=O)C1(C(F)(F)F)CCN(CC(F)(F)F)CC1 [Compound 554]
< 10 | > 1000 | O=C(O)[C@H](Cc1cccc2c(-c3ccc(CN4CCCCC4)c4ccncc34)cccc12)NC(=O)C1(C(F)(F)F)CCN(CC(F)(F)F)CC1 [Compound 555]
< 10 | > 1000 | O=C(O)[C@H](Cc1cccc2c(-c3nccc4c(CN5CC(F)C5)cccc34)cccc12)NC(=O)C1(C(F)(F)F)CCN(CC(F)(F)F)CC1 [Compound 556]
< 10 | 100 to 1000 | COc1ccc(CN(C)C)c(C)c1-c1cccc2c(C[C@H](NC(=O)c3c(C)cccc3F)C(=O)O)cccc12 [Compound 558]
< 10 | > 1000 | O=C(O)[C@H](Cc1cccc2c(-c3nccc4c(CN5CCOCC5)cccc34)cccc12)NC(=O)C1(C(F)(F)F)CCN(CC(F)(F)F)CC1 [Compound 559]
< 10 | > 1000 | O=C(O)[C@H](Cc1cccc2c(-c3nccc4c(CN5CCC(F)CC5)cccc34)cccc12)NC(=O)C1(C(F)(F)F)CCN(CC(F)(F)F)CC1 [Compound 560]
< 10 | > 1000 | CC1(C)CCN(Cc2cccc3c(-c4cccc5c(C[C@H](NC(=O)C6(C(F)(F)F)CCN(CC(F)(F)F)CC6)C(=O)O)cccc45)nccc23)CC1 [Compound 561]
< 10 | 100 to 1000 | COc1ccc(CN2CCCCC2)c(C(F)(F)F)c1-c1cccc2c(C[C@H](NC(=O)c3c(C)cccc3F)C(=O)O)cccc12 [Compound 562]
< 10 | 100 to 1000 | COc1ccc(CN(C)C)c(C(F)(F)F)c1-c1cccc2c(C[C@H](NC(=O)C3(C(F)(F)F)CCN(CC(F)(F)F)CC3)C(=O)O)cccc12 [Compound 563]

IC50 (α4β7 integrin) [nM] | IC50 (α4β1 integrin) [nM] | Compound
< 10 | 100 to 1000 | COc1ccc(CN2CCCCC2)c(C(F)(F)F)c1-c1cccc2c(C[C@H](NC(=O)C3(C(F)(F)F)CCN(CC(F)(F)F)CC3)C(=O)O)cccc12 [Compound 564]
< 10 | 100 to 1000 | COc1ccc(CN2CCCC(C)(C)C2)c(OC)c1-c1cccc2c(C[C@H](NC(=O)c3c(C)cccc3F)C(=O)O)cccc12 [Compound 565]
< 10 | > 1000 | COc1cccc(CN2CCCCC2)c1-c1cccc2c(C[C@H](NC(=O)C3(C(F)(F)F)CCN(CC(F)(F)F)CC3)C(=O)O)cccc12 [Compound 566]
< 10 | 100 to 1000 | COc1cccc(CCCN(C)C)c1-c1cccc2c(C[C@H](NC(=O)C3(C(F)(F)F)CCN(CC(F)(F)F)CC3)C(=O)O)cccc12 [Compound 567]
< 10 | 100 to 1000 | COc1ccc(CN2CCC(C(F)(F)F)CC2)c(OC)c1-c1cccc2c(C[C@H](NC(=O)c3c(C)cccc3F)C(=O)O)cccc12 [Compound 569]
< 10 | 100 to 1000 | COc1ccc(CN2CCC(c3ccccc3)CC2)c(OC)c1-c1cccc2c(C[C@H](NC(=O)c3c(C)cccc3F)C(=O)O)cccc12 [Compound 570]
< 10 | > 1000 | COc1ccc(CN2CCCCC2)c(OC)c1-c1cccc2c(C[C@H](NC(=O)c3c(F)cccc3C(C)C)C(=O)O)cccc12 [Compound 571]
10 to 100 | > 1000 | COc1ccc(CN2CCCC(F)C2)c(C(F)(F)F)c1-c1cccc2c(C[C@H](NC(=O)c3c(C)cccc3F)C(=O)O)cccc12 (some centres unmarked) [Compound 572]
< 10 | > 1000 | COc1ccc(CN2CCC(F)(F)CC2)c(OC)c1-c1cccc2c(C[C@H](NC(=O)C3(C(F)(F)F)CCN([C@H]4COC[C@H]4F)CC3)C(=O)O)cccc12 [Compound 573]
10 to 100 | > 1000 | COc1ccc(CN2CCC(F)CC2)c(C(F)(F)F)c1-c1cccc2c(C[C@H](NC(=O)c3c(C)cccc3F)C(=O)O)cccc12 [Compound 574]
< 10 | 100 to 1000 | COc1ccc(CN2CCCCC2)cc1-c1cccc2c(C[C@H](NC(=O)C3(C(F)(F)F)CCN(CC(F)(F)F)CC3)C(=O)O)cccc12 [Compound 575]
< 10 | > 1000 | CC1(C(=O)N[C@@H](Cc2cccc3c(-c4ncc(CN5CCCCC5)c5ccccc45)cccc23)C(=O)O)CCN(CC(F)(F)F)CC1 [Compound 576]
< 10 | 100 to 1000 | O=C(O)[C@H](Cc1cccc2c(-c3ncc(CN4CCCCC4)c4ccccc34)cccc12)NC(=O)C1(C(F)(F)F)CCN(C2COC2)CC1 [Compound 577]
< 10 | > 1000 | O=C(O)[C@H](Cc1cccc2c(-c3ncc(CN4CCCCC4)c4ccccc34)cccc12)NC(=O)C1(C(F)(F)F)CCN([C@@H]2COCC2(F)F)CC1 [Compound 578]
< 10 | 100 to 1000 | COc1ccc(CN2CCC(C(C)(C)C)CC2)c(OC)c1-c1cccc2c(C[C@H](NC(=O)c3c(C)cccc3F)C(=O)O)cccc12 [Compound 579]
< 10 | > 1000 | O=C(O)[C@H](Cc1cccc2c(-c3ncc(CN4CCC(C(F)(F)F)CC4)c4ccccc34)cccc12)NC(=O)C1(C(F)(F)F)CCN(C2COC2)CC1 [Compound 580]
10 to 100 | > 1000 | CN(C)Cc1ccc2c(-c3cccc4c(C[C@H](NC(=O)C5(C(F)(F)F)CCN(CC(F)(F)F)CC5)C(=O)O)cccc34)nccc2c1 [Compound 584]
< 10 | > 1000 | CN(C)Cc1cc(-c2cccc3c(C[C@H](NC(=O)c4c(F)cc(N5CCOC[C@@H]5C(F)(F)F)cc4CN4CCCC4)C(=O)O)cccc23)c2cnccc2c1 [Compound 587]
100 to 1000 | > 1000 | COc1ccc(CN(C)C)c(OC)c1-c1cccc2c(C[C@H](NC(=O)c3c(C)cccc3CN3CCC(F)(F)CC3)C(=O)O)cccc12 [Compound 588]
< 10 | > 1000 | COc1ccc(CN(C)C)c(OC)c1-c1cccc2c(C[C@H](NC(=O)c3c(F)ccc(F)c3C)C(=O)O)cccc12 [Compound 589]
< 10 | > 1000 | COc1ccc(CN2CC(F)C2)c(OC)c1-c1cccc2c(C[C@H](NC(=O)c3c(C)cccc3F)C(=O)O)cccc12 [Compound 590]
< 10 | > 1000 | CN(C)Cc1cccc2c(-c3cccc4c(C[C@H](NC(=O)C5(C(F)(F)F)CCN(C6COC6)CC5)C(=O)O)cccc34)nccc12 [Compound 591]

Compound | IC50 (α4β7 integrin) [nM] | IC50 (α4β1 integrin) [nM]
CC1(C(=O)N[C@@H](Cc2cccc3c(-c4nccc5ccc(CCCN6CCCCC6)cc45)cccc23)C(=O)O)CC2CCC(C1)N2CC(F)(F)F (some centres unmarked) [Compound 548] | < 10 | > 1000
